Source: patent US12215098B2 (priority 2018, dated 2025)
“Also recorded” adds a separate entry of the source.

How the values were obtained:
[1] = target: Glutathione-S-transferase-labeled FXR human protein (Homo sapiens (Human), UniProt Q96RI1); experiment: FXR biochemical assay (alphascreen); settings: FXR with biotin-labeled steroid receptor coactivator, read-out: EC50 (nM) Mean ± SEM, activation effect on FXR
Protocol: 1. […] The reference compound was prepared as a 400 μM DMSO solution, and then diluted 1.5-fold to 10 concentration points. […] 2. […] 3. […] 4. […] 5. […] 6.

[2] = test system: NASH model (high-fat diet feeding and CCl4 induction); experiment: In vivo efficacy assay, high-fat diet and CCl4 induced NASH model; set-up: species or system mice
Protocol: The model building in this assay included two steps: high-fat diet feeding and CCl4 induction. Firstly, the mice were fed with high-fat diet to induce non-alcoholic fatty liver. The mice with a body weight of >35 g were selected and continued to be fed with high-fat diet while being administered with 25% CCl4 ([…]) by intraperitoneal injection twice a week for four weeks.
The day when the administration of CCl4 was started was set as day 0, and the time when the administration of CCl4 was started was set as hour 0. On the day when the administration of CCl4 was started, the administration was started by intragastric gavage. […] The time point of the injection of CCl4 should be 4 hours or longer apart from the time point of the first administration of the day.
The healthy control group consisted of 6 normal mice, which were fed with ordinary diet during the assay, without CCl4 injection.
48 obese mice were used in the model group and the administration group. Each group consisted of 8 mice. After grouping, the mice were injected intraperitoneally with CCl4 and administered with different doses of drugs or vehicle, respectively.
The analysis software Graphpad Prism6 was used for comparation between two groups.
For the analysis of hepatic pathology in animal models of non-alcoholic steatohepatitis, the therapeutic effect of the compound on NAFLD was comprehensively evaluated in three aspects of hepatocyte steatosis, hepatocyte ballooming degeneration, and inflammation accumulation in hepatic lobule with the reference of clinicopathological diagnosis and evaluation criteria for NAFLD, and using NAFLD activity score (NAS).
All slices stained with Sirius red were wholly scanned by a Digital pathoscope 4S slide scanner. 2 fields of view were randomly selected under a 5× field of view, and 2 fields of view covered 85% of the liver tissue area. Image pro-plus 6.0 software was then used for quantitative analysis, and fibrosis deposition area in the slice was calculated.

[3] = Hygroscopicity study by dynamic vapor sorption (DVS); type: physicochemical; settings: 25° C. and 80% RH
Protocol: Dynamic Vapor Sorption (DVS) Method Used in the Present Disclosure
Instrument model: SMS DVS Advantage dynamic vapor sorption apparatus
Test condition: The sample (10 to 15 mg) was placed in a DVS sample pan for testing.
The detailed DVS parameters were as follows:
Equilibration: dm/dt=0.01%/min (The shortest time: 10 min, and the longest time: 180 min)
Drying: Dried for 120 min at 0% RH
RH (%) test gradient: 10%
Range of RH (%) test gradient: 0%-90%-0%
The classification of hygroscopicity evaluation was as follows:
SMS DVS Advantage dynamic vapor sorption apparatus

[4] = Solid stability test (high temperature, high humidity, strong light; XRPD); type: physicochemical
From the text: For the samples placed under high temperature and high humidity conditions, the vial opening was sealed with aluminum foil paper and small holes were punched in the aluminum foil paper to ensure that the sample can fully contact the ambient air. For the samples placed under strong light condition, the vial opening was sealed with aluminum foil paper. The samples placed under various conditions were sampled and tested for XRPD on the 5th day and 10th day, and the test results were compared with the initial test results on day 0.

[5] = 15 mg/kg, intragastric gavage once a day, 28 days, Mean±SEM
[6] = 7.5 mg/kg, intragastric gavage once a day, 28 days, Mean±SEM

Chain of Glutathione-S-transferase-labeled FXR human protein (Q96RI1 whole entry): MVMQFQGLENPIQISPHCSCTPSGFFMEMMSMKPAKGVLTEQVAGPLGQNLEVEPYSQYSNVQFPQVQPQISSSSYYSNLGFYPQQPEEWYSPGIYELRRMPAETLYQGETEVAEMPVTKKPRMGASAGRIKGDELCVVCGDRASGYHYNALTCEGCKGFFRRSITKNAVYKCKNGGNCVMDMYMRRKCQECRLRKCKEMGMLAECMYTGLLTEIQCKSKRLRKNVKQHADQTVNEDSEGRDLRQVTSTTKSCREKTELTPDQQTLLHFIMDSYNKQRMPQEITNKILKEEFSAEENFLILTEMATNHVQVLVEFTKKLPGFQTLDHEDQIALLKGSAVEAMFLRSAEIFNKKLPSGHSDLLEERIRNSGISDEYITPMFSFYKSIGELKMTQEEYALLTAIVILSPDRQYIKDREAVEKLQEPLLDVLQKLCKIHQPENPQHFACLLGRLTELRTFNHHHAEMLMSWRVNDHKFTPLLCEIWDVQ

Classification of hygroscopicity [3]	ΔW, weight increase by moisture absorption [3] [%]	Crystal form (XRPD) ([4]; Day 0, initial)	Crystal form (XRPD) ([4]; High humidity (room temperature/relative humidity at 92.5%, open), Day 5)	Crystal form (XRPD) ([4]; High humidity (room temperature/relative humidity at 92.5%, open), Day 10)	Crystal form (XRPD) ([4]; High temperature (60° C., open), Day 5)	Crystal form (XRPD) ([4]; High temperature (60° C., open), Day 10)	Crystal form (XRPD) ([4]; Strong light (5000 lx, sealed), Day 5)	Crystal form (XRPD) ([4]; Strong light (5000 lx, sealed), Day 10)	Solid stability (in words) ([4]; high temperature, high humidity and strong light)	Compound	EC50 [1] [nM]	Hepatocyte ballooming degeneration score [2, 5]	NAS score [2, 5]	NAS score ([2]; 15 mg/kg, intragastric gavage once a day, 28 days, Mean±SEM, listed as PX104)	Hepatic fibrosis (fibrosis deposition area, Sirius red) [2, 6]	Hepatocyte ballooming degeneration score [2, 6]	Hepatic steatosis score [2, 5]	Hepatocyte ballooming degeneration score ([2]; 45 mg/kg, intragastric gavage once a day, 28 days, Mean±SEM, one mouse 0.17 determined as abnormal value)	Hepatic function and hepatic damage (in words) ([2]; conclusion of the assay)
										O=C(O)c1ccnc(N2CC(O)(c3ccc(OCc4c(-c5c(Cl)cccc5Cl)noc4C4CC4)cc3Cl)C2)c1 [PX-104, reference compound]	65.2	0.0	1.479	significantly reduce the NAS score					
										O=C(O)c1cnc(N2C(=O)CCc3cc(OCc4c(-c5c(Cl)cccc5Cl)noc4C4CC4)ccc32)c(Cl)c1 [compound of formula (I)]		0.0			2.580	0.0	0.854	0.021^@ ±	significantly improve hepatic function and reduce hepatic damage
slightly hygroscopic	0.5834	Crystal form A	Crystal form A	Crystal form A	Crystal form A	Crystal form A	Crystal form A	Crystal form A	good stability; also recorded: stable	O=C(O)c1cnc(N2C(=O)CCc3cc(OCc4c(-c5c(Cl)cccc5Cl)noc4C4CC4)ccc32)c(Cl)c1									
